This is an account of results in paper PMC12753884, “Naringenin targets FimZ to regulate type I fimbriae and reduce the virulence of Salmonella” (Frontiers in Cellular and Infection Microbiology, 2025).

What all share (format): binding
Assay [1] has as its target T1, FimZ (Salmonella enterica, UniProt P26319, T138A).
T1 construct: Flag-FimZ-His mutant
T1 sequence (P26319 1-210 T138A): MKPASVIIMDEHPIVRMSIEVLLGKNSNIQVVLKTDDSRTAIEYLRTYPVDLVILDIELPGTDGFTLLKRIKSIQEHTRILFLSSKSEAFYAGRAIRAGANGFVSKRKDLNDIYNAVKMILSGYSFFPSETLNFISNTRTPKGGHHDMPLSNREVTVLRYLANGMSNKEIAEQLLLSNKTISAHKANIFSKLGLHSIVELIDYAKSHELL
The assay is described as follows: SPR (Biacore X100, His-antibody capture on CM5 chip).

In assay [2] the target is T2, FimZ (Salmonella enterica, UniProt P26319, I135A).
T2 construct: Flag-FimZ-His mutant
T2 sequence (P26319 1-210 I135A): T1 sequence (P26319 1-210 T138A)
The assay is described as above.

Assay [3] has as its target T3, FimZ (Salmonella enterica, UniProt P26319).
T3 construct: Flag-FimZ-His, whole fimZ fragment of SL1344 in pET-28a
The assay is described as follows: SPR (Biacore X100, His-antibody capture on CM5 chip); EMSA support.

Molecules are shown by their SMILES.

For `O=C1C[C@@H](c2ccc(O)cc2)Oc2cc(O)cc(O)c21` [Nar, naringenin], the Kd in assay [1] is 412 µM; in assay [2] it was 152 µM; in assay [3] it was 33.9 µM.
